Molecular target: human capsaicin receptor (VR1) (Homo sapiens, UniProt Q8NER1)
Test: Capsaicin receptor binding assay ([3H]RTX competition, VR1-transfected HEK293 membranes)

human capsaicin receptor (VR1), sequence (Q8NER1 whole entry): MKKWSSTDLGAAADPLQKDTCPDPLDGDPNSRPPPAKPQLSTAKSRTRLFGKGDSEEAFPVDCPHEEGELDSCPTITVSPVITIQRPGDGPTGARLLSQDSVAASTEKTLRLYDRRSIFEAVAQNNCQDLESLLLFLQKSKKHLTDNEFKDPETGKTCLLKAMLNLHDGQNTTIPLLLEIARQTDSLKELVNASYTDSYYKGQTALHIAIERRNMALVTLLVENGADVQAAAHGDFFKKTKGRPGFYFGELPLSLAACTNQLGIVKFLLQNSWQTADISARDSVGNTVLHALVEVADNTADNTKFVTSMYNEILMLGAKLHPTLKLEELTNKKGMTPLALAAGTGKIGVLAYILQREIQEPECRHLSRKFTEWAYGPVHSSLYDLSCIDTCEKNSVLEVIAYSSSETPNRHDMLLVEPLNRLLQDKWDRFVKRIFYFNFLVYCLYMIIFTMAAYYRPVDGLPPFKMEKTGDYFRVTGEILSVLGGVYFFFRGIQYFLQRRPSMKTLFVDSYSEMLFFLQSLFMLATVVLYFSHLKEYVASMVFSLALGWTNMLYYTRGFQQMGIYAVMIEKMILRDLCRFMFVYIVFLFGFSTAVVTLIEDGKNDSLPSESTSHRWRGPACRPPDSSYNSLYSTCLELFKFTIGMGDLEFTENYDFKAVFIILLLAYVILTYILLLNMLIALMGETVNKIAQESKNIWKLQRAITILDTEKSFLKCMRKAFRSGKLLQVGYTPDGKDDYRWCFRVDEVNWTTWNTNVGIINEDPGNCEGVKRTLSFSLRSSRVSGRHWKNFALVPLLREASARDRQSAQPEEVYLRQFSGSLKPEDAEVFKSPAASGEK

| Structure (SMILES) | Ki |
| --- | --- |
| COCc1nc(Nc2ccc(Cl)cc2)c2ccc(-c3ncccc3C(F)(F)F)nc2n1 [Compound 287, (4-Chloro-phenyl)-[2-methoxymethyl-7-(3-trifluoromethyl-pyridin-2-yl)-pyrido[2,3-d]pyrimidin-4-yl]-amine] | < 1000 nM |
| COCc1nc(Nc2ccc(C#N)cc2)c2ccc(-c3ncccc3C(F)(F)F)nc2n1 [Compound 288, 4-[2-Methoxymethyl-7-(3-trifluoromethyl-pyridin-2-yl)-pyrido[2,3-d]pyrimidin-4-ylamino]-benzonitrile] | < 1000 nM |
| COCc1nc(Nc2ccc(C(C)=O)cc2)c2ccc(-c3ncccc3C(F)(F)F)nc2n1 [Compound 289, 1-{4-[2-Methoxymethyl-7-(3-trifluoromethyl-pyridin-2-yl)-pyrido[2,3-d]pyrimidin-4-ylamino]-phenyl}-ethanone] | < 1000 nM |
| COCc1nc(Nc2ccc(C(C)(C)C#N)cc2)c2ccc(-c3ncccc3C(F)(F)F)nc2n1 [Compound 290, 2-{4-[2-Methoxymethyl-7-(3-trifluoromethyl-pyridin-2-yl)-pyrido[2,3-d]pyrimidin-4-ylamino]-phenyl}-2-methyl-propionitrile] | < 1000 nM |
| COCc1nc(Nc2ccc(F)c(F)c2)c2ccc(-c3ncccc3C(F)(F)F)nc2n1 [Compound 291, (3,4-Difluoro-phenyl)-[2-methoxymethyl-7-(3-trifluoromethyl-pyridin-2-yl)-pyrido[2,3-d]pyrimidin-4-yl]-amine] | < 1000 nM |
| COCc1nc(Nc2ccc(Cl)c(F)c2)c2ccc(-c3ncccc3C(F)(F)F)nc2n1 [Compound 292, (4-Chloro-3-fluoro-phenyl)-[2-methoxymethyl-7-(3-trifluoromethyl-pyridin-2-yl)-pyrido[2,3-d]pyrimidin-4-yl]-amine] | < 1000 nM |
| COCc1nc(Nc2ccc(Cl)c(C)c2)c2ccc(-c3ncccc3C(F)(F)F)nc2n1 [Compound 293, (4-Chloro-3-methyl-phenyl)-[2-methoxymethyl-7-(3-trifluoromethyl-pyridin-2-yl)-pyrido[2,3-d]pyrimidin-4-yl]-amine] | < 1000 nM |
| COCc1nc(Nc2ccc(Cl)c(C(F)(F)F)c2)c2ccc(-c3ncccc3C(F)(F)F)nc2n1 [Compound 294] | < 1000 nM |
| COCc1cc2nc(-c3ncccc3C(F)(F)F)ccc2c(Nc2ccc(C(F)(F)F)cc2)n1 [Compound 295, [7-Methoxymethyl-2-(3-trifluoromethyl-pyridin-2-yl)-[1,6]naphthyridin-5-yl]-(4-trifluoromethyl-phenyl)-amine] | < 1000 nM |
| CC(C)COCc1cc2nc(-c3ncccc3C(F)(F)F)ccc2c(Nc2ccc(C(F)(F)F)cc2)n1 [Compound 296, [7-Isobutoxymethyl-2-(3-trifluoromethyl-pyridin-2-yl)-[1,6]naphthyridin-5-yl]-(4-trifluoromethyl-phenyl)-amine] | < 1000 nM |
| COCc1cc(Nc2ccc(C(F)(F)F)cc2)c2ccc(-c3ncccc3C(F)(F)F)nc2n1 [Compound 297, [2-Methoxymethyl-7-(3-trifluoromethyl-pyridin-2-yl)-[1,8]naphthyridin-4-yl]-(4-trifluoromethyl-phenyl)-amine] | < 1000 nM |
| COCc1cc(Nc2ccc(C(C)(C)C)cc2)c2ccc(-c3ncccc3C(F)(F)F)nc2n1 [Compound 298, (4-tert-Butyl-phenyl)-[2-methoxymethyl-7-(3-trifluoromethyl-pyridin-2-yl)-[1,8]naphthyridin-4-yl]-amine] | < 1000 nM |
| COCc1nc2nc(-c3ncccc3C(F)(F)F)ccc2c(Nc2ccc(C(F)(F)F)cc2)c1C(=O)OC [Compound 299, 2-Methoxymethyl-4-(4-trifluoromethyl-phenylamino)-7-(3-trifluoromethyl-pyridin-2-yl)-[1,8]naphthyridine-3-carboxylic acid methyl ester] | < 1000 nM |
| OCc1cc(Nc2ccc(C(F)(F)F)cc2)c2ccc(-c3ncccc3C(F)(F)F)nc2n1 [Compound 300, [4-(4-Trifluoromethyl-phenylamino)-7-(3-trifluoromethyl-pyridin-2-yl)-[1,8]naphthyridin-2-yl]-methanol] | < 1000 nM |
| CC(C)COCc1cc(Nc2ccc(C(F)(F)F)cc2)c2ccc(-c3ncccc3C(F)(F)F)nc2n1 [Compound 301, [2-Isobutoxymethyl-7-(3-trifluoromethyl-pyridin-2-yl)-[1,8]naphthyridin-4-yl]-(4-trifluoromethyl-phenyl)-amine] | < 1000 nM |
| COCc1cc(Nc2ccc(Cl)cc2)c2ccc(-c3ncccc3C(F)(F)F)nc2n1 [Compound 302, (4-Chloro-phenyl)-[2-methoxymethyl-7-(3-trifluoromethyl-pyridin-2-yl)-[1,8]naphthyridin-4-yl]-amine] | < 1000 nM |
| COCc1cc(Nc2ccc(F)cc2)c2ccc(-c3ncccc3C(F)(F)F)nc2n1 [Compound 303, (4-Fluoro-phenyl)-[2-methoxymethyl-7-(3-trifluoromethyl-pyridin-2-yl)-[1,8]naphthyridin-4-yl]-amine] | < 1000 nM |
| COCc1cc(Nc2ccc(Cl)c(F)c2)c2ccc(-c3ncccc3C(F)(F)F)nc2n1 [Compound 304, (4-Chloro-3-fluoro-phenyl)-[2-methoxymethyl-7-(3-trifluoromethyl-pyridin-2-yl)-[1,8]naphthyridin-4-yl]-amine] | < 1000 nM |
| COCc1cc(Nc2ccc(C#N)cc2)c2ccc(-c3ncccc3C(F)(F)F)nc2n1 [Compound 305, 4-[2-Methoxymethyl-7-(3-trifluoromethyl-pyridin-2-yl)-[1,8]naphthyridin-4-ylamino]-benzonitrile] | < 1000 nM |
| COCc1cc(Nc2ccc(S(=O)(=O)C(C)C)cc2)c2ccc(-c3ncccc3C(F)(F)F)nc2n1 [Compound 306, [2-Methoxymethyl-7-(3-trifluoromethyl-pyridin-2-yl)-[1,8]naphthyridin-4-yl]-[4-(propane-2-sulfonyl)-phenyl]-amine] | < 1000 nM |
| COCc1cc(Nc2ccc(C(F)(F)F)cn2)c2ccc(-c3ncccc3C(F)(F)F)nc2n1 [Compound 307, [2-Methoxymethyl-7-(3-trifluoromethyl-pyridin-2-yl)-[1,8]naphthyridin-4-yl]-(5-trifluoromethyl-pyridin-2-yl)-amine] | < 1000 nM |
| COCc1cc(Nc2ccc(S(=O)(=O)C(F)(F)F)cc2)c2ccc(-c3ncccc3C(F)(F)F)nc2n1 [Compound 308, [2-Methoxymethyl-7-(3-trifluoromethyl-pyridin-2-yl)-[1,8]naphthyridin-4-yl]-(4-trifluoromethanesulfonyl-phenyl)-amine] | < 1000 nM |
| CN(C)CCOCc1cc(Nc2ccc(C(F)(F)F)cc2)c2ccc(-c3ncccc3C(F)(F)F)nc2n1 [Compound 309, [2-(2-Dimethylamino-ethoxymethyl)-7-(3-trifluoromethyl-pyridin-2-yl)-[1,8]naphthyridin-4-yl]-(4-trifluoromethyl-phenyl)-amine] | < 1000 nM |
| CC(C)CCOCc1cc(Nc2ccc(C(F)(F)F)cc2)c2ccc(-c3ncccc3C(F)(F)F)nc2n1 [Compound 312, [2-(3-Methyl-butoxymethyl)-7-(3-trifluoromethyl-pyridin-2-yl)-[1,8]naphthyridin-4-yl]-(4-trifluoromethyl-phenyl)-amine] | < 1000 nM |
| CC(C)COCc1cc(Nc2ccc(C(F)(F)F)cn2)c2ccc(-c3ncccc3C(F)(F)F)nc2n1 [Compound 314, [2-Isobutoxymethyl-7-(3-trifluoromethyl-pyridin-2-yl)-[1,8]naphthyridin-4-yl]-(5-trifluoromethyl-pyridin-2-yl)-amine] | < 1000 nM |

Other lines, results leading:

| Ki | Structure (SMILES) |
| --- | --- |
| < 1000 nM | CCOCc1cc(Nc2ccc(C(F)(F)F)cc2)c2ccc(-c3ncccc3C(F)(F)F)nc2n1 [Compound 310, [2-Ethoxymethyl-7-(3-trifluoromethyl-pyridin-2-yl)-[1,8]naphthyridin-4-yl]-(4-trifluoromethyl-phenyl)-amine] |
| < 1000 nM | CC(C)OCc1cc(Nc2ccc(C(F)(F)F)cc2)c2ccc(-c3ncccc3C(F)(F)F)nc2n1 [Compound 311, [2-Isopropoxymethyl-7-(3-trifluoromethyl-pyridin-2-yl)-[1,8]naphthyridin-4-yl]-(4-trifluoromethyl-phenyl)-amine] |
| < 1000 nM | CCCOCc1cc(Nc2ccc(C(F)(F)F)cc2)c2ccc(-c3ncccc3C(F)(F)F)nc2n1 [Compound 313, [2-Propoxymethyl-7-(3-trifluoromethyl-pyridin-2-yl)-[1,8]naphthyridin-4-yl]-(4-trifluoromethyl-phenyl)-amine] |
| < 1000 nM | CC(c1ccccc1)N(C)Cc1nc(Nc2ccc(C(F)(F)F)cc2)c2ccc(-c3ncccc3C(F)(F)F)cc2n1 (stereo not shown) [Compound 323, [2-{[Methyl-(1-phenyl-ethyl)-amino]-methyl}-7-(3-trifluoromethyl-pyridin-2-yl)-quinazolin-4-yl]-(4-trifluoromethyl-phenyl)-amine] |
| < 1000 nM | CN(Cc1nc(Nc2ccc(C(F)(F)F)cc2)c2ccc(-c3ncccc3C(F)(F)F)cc2n1)C1CCc2ccccc21 (stereo not shown) [Compound 324, [2-[(Indan-1-yl-methyl-amino)-methyl]-7-(3-trifluoromethyl-pyridin-2-yl)-quinazolin-4-yl]-(4-trifluoromethyl-phenyl)-amine] |
| < 1000 nM | CCCN(C)Cc1nc(Nc2ccc(C(F)(F)F)cc2)c2ccc(-c3ncccc3C(F)(F)F)cc2n1 [Compound 330] |
| < 1000 nM | CCCCN(C)Cc1nc(Nc2ccc(C(F)(F)F)cc2)c2ccc(-c3ncccc3C(F)(F)F)cc2n1 [Compound 331] |
| < 1000 nM | CCN(Cc1nc(Nc2ccc(C(F)(F)F)cc2)c2ccc(-c3ncccc3C(F)(F)F)cc2n1)C(C)C [Compound 332] |
| < 1000 nM | C=CCN(CC=C)Cc1nc(Nc2ccc(C(F)(F)F)cc2)c2ccc(-c3ncccc3C(F)(F)F)cc2n1 [Compound 333] |
| < 1000 nM | CCCCN(CC)Cc1nc(Nc2ccc(C(F)(F)F)cc2)c2ccc(-c3ncccc3C(F)(F)F)cc2n1 [Compound 334] |
| < 1000 nM | CCCCCCN(C)Cc1nc(Nc2ccc(C(F)(F)F)cc2)c2ccc(-c3ncccc3C(F)(F)F)cc2n1 [Compound 336] |
| < 1000 nM | CC(C)N(C)Cc1nc(Nc2ccc(C(F)(F)F)cc2)c2ccc(-c3ncccc3C(F)(F)F)cc2n1 [Compound 338] |
